# Measured values: patent US20230416243A1, “Process for Preparing Heterocyclic Methanone Compounds and AZA-Bicyclo Intermediates Thereof” (ACTINOGEN MEDICAL LIMITED, priority 2020, published 2023)
# Assay: Solubility test in water
# Format: physicochemical
# Conditions: water at pH 4
# Procedure: A saponification of A4 in aqueous conditions was conducted.
smiles,measurement,value
O=C(O)c1csc(-c2cn[nH]c2)c1 [Compound A5],Solubility in water,soluble
